Reference: article PMC4898484 (Molecular microbiology, 2015)
pIC50: −log10 of the molar value.

Molecular target: Plasmodium falciparum phosphatidylserine decarboxylase (PfPSD) (Plasmodium falciparum, UniProt Q9GPP8)
Test: radiometric decarboxylase assay
Assay type: biochemical

Sequence of Plasmodium falciparum phosphatidylserine decarboxylase (PfPSD) (Q9GPP8 41-315): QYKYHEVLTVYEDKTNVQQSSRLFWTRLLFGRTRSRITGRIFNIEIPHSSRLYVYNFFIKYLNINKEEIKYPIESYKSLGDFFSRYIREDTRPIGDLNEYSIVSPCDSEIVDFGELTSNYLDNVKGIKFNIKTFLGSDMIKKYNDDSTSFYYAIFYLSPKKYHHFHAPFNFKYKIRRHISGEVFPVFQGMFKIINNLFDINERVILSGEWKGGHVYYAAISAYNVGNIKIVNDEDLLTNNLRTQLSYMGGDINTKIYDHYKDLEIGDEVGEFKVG
Sequence of Plasmodium falciparum phosphatidylserine decarboxylase (PfPSD) (Q9GPP8 316-362): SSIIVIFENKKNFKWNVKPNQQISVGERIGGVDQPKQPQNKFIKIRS

Compound: CCCc1ccc(Nc2ccnc3cc(Cl)ccc23)cc1 [7CPQA, 7-chloro-N-(4-propylphenyl)-4-quinolinamine]
- pIC50: 4.00 to 5.00
